Reference: US20150315188A1, “COMPOUNDS AND METHODS FOR TREATMENT OF HYPERTENSION” (MEDIVATION TECHNOLOGIES, INC., priority 2012, published 2015)

What follows are compounds tested against T1, Human adrenergic α2A receptor (Homo sapiens, UniProt P08913) (assay: β-Arrestin GPCR functional assay, adrenergic α2A (Protocol B)). Settings: 0.1 μM compound; nor-epinephrine at EC80 (270 nM).
T1 sequence (P08913 1-465): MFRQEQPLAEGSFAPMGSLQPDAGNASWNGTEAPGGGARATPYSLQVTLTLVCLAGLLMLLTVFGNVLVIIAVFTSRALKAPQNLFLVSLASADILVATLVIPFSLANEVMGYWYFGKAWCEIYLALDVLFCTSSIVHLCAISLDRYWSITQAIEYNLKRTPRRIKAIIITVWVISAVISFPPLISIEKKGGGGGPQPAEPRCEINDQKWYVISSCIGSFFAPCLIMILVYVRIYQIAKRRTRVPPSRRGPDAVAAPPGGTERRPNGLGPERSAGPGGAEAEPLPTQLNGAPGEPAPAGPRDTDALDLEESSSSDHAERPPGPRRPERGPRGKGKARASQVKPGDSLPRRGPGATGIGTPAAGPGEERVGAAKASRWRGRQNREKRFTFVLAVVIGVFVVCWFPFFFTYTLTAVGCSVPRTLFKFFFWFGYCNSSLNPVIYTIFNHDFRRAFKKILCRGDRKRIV
Format: cell-based
In short: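 PathHunter CHO cells overexpressing human α2A receptor were preincubated with compounds (1% DMSO final) for 30 min at 37 °C, then stimulated 90 min with norepinephrine at EC80 (270 nM). β-Arrestin recruitment read by chemiluminescence after 60 min detection; reported as % inhibition or IC50.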

SMILES | Percentage inhibition, Adrenergic α2A
Cc1ccc2c(c1)c1c(n2CC(O)c2ccncc2F)CCN2CCCC12 (single isomer, unassigned) [14a] | −1%

Same assay, conditions: 0.3 μM compound; nor-epinephrine at EC80 (270 nM)

SMILES | Percentage inhibition, Adrenergic α2A
Cc1ccc2c(c1)c1c(n2CC(O)c2ccncc2F)CCN2CCCC12 (single isomer, unassigned) [14a] | −2%

Same assay, conditions: β-arrestin, antagonist vs nor-epinephrine EC80

SMILES | IC50
Cc1cc(F)c2c(c1)c1c(n2CC(O)c2ccncc2)CCN2CCCC12 (single isomer, unassigned) [137b] | 0.185 µM
Cc1ccc2c(c1)c1c(n2CC(OC2CCCC2)c2ccncc2)CCN(C)C1 (single isomer, unassigned) [35a] | 2.39 µM
Cc1cc2c3c(n(CC(C)(O)c4ccncc4)c2cc1Cl)CCN1CCCC31 (single isomer, unassigned) [50b] | 0.565 µM
OC(Cn1c2c(c3cc(Cl)cc(F)c31)C1CCCN1CC2)c1ccncc1 (single isomer, unassigned) [135a] | 4.35 µM
CC(O)(Cn1c2c(c3cc(F)ccc31)C1CCCN1CC2)c1ccncc1 (single isomer, unassigned) [31b] | 11.3 µM
Cc1cc(F)cc2c3c(n(CC(C)(O)c4cccnc4)c12)CCN1CCCC31 (single isomer, unassigned) [75a] | 2.08 µM

What follows are compounds tested against T2, Human adrenergic α2B receptor (Homo sapiens, UniProt P18089) (assay: Radioligand binding, adrenergic α2B (Protocol Group B)). Settings: 0.1 nM compound; concentration series; 0.0001 µM.
T2 sequence (P18089 1-450): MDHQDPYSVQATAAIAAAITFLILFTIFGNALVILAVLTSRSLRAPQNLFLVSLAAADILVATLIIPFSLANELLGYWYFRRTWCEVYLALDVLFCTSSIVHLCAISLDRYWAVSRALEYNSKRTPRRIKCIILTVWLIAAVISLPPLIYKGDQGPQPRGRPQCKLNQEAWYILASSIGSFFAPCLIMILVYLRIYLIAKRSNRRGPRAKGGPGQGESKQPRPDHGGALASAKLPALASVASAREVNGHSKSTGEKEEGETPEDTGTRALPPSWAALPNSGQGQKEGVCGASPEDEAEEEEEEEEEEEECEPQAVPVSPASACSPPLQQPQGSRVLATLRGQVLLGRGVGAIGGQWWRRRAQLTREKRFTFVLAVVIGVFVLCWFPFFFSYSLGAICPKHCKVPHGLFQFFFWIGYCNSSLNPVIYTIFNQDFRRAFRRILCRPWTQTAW
Design: purchased Milipore (Millipore)
In short: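 Recombinant human α2B receptor membranes incubated with compounds in 50 mM Tris-HCl pH 7.4, 5 mM MgCl2, 1 mM CaCl2, 0.2% BSA, 1% DMSO vehicle. Non-specific binding defined with 10 μM rauwolscine. Values are percent inhibition of specific binding or estimated Ki.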

SMILES | Percentage inhibition of ligand binding, Adrenergic α2B, 0.1 nM
Cc1ccc2c(c1)c1c(n2CC(O)c2ccncc2F)CCN2CCCC12 (single isomer, unassigned) [14a] | −28%

Same assay, conditions: 10 nM compound; Protocol Group B; 0.01 µM

SMILES | Percentage inhibition of ligand binding, Adrenergic α2B (10 nM)
Cc1cc(F)c2c(c1)c1c(n2CC(O)c2ccncc2)CCN2CCCC12 (single isomer, unassigned) [137b] | 106%
Cc1cc2c3c(n(CC(C)(O)c4ccncc4)c2cc1Cl)CCN1CCCC31 (single isomer, unassigned) [50b] | 98%
CC(O)(Cn1c2c(c3cc(F)ccc31)C1CCCN1CC2)c1ccncc1 (single isomer, unassigned) [31b] | 68%
Cc1cc(F)cc2c3c(n(CC(C)(O)c4cccnc4)c12)CCN1CCCC31 (single isomer, unassigned) [75a] | 8%
Cc1ccc2c(c1)c1c(n2CC(O)c2ccncc2F)CCN2CCCC12 (single isomer, unassigned) [14a] | 60%

Same assay, conditions: 10 nM compound; Protocol Group B; read-out: Percentage inhibition of ligand binding, Adrenergic α2B (10 nM)

SMILES | inhibition at 0.01 µM
Cc1ccc2c(c1)c1c(n2CC(OC2CCCC2)c2ccncc2)CCN(C)C1 (single isomer, unassigned) [35a] | 63%
OC(Cn1c2c(c3cc(Cl)cc(F)c31)C1CCCN1CC2)c1ccncc1 (single isomer, unassigned) [135a] | 79%

Same assay, conditions: 30 nM compound; Protocol Group B

SMILES | Percentage inhibition of ligand binding, Adrenergic α2B (30 nM)
CC(O)(Cn1c2c(c3cc(F)ccc31)C1CCCN1CC2)c1ccncc1 (single isomer, unassigned) [31b] | 90%

Same assay, conditions: 30 nM compound; Protocol Group B; 0.03 µM

SMILES | Percentage inhibition of ligand binding, Adrenergic α2B (30 nM)
Cc1cc(F)c2c(c1)c1c(n2CC(O)c2ccncc2)CCN2CCCC12 (single isomer, unassigned) [137b] | 107%
Cc1cc2c3c(n(CC(C)(O)c4ccncc4)c2cc1Cl)CCN1CCCC31 (single isomer, unassigned) [50b] | 100%
Cc1cc(F)cc2c3c(n(CC(C)(O)c4cccnc4)c12)CCN1CCCC31 (single isomer, unassigned) [75a] | 40%

Same assay, conditions: 30 nM compound; Protocol Group B; read-out: Percentage inhibition of ligand binding, Adrenergic α2B (30 nM)

SMILES | inhibition at 0.03 µM
Cc1ccc2c(c1)c1c(n2CC(OC2CCCC2)c2ccncc2)CCN(C)C1 (single isomer, unassigned) [35a] | 86%
OC(Cn1c2c(c3cc(Cl)cc(F)c31)C1CCCN1CC2)c1ccncc1 (single isomer, unassigned) [135a] | 93%
Cc1ccc2c(c1)c1c(n2CC(O)c2ccncc2F)CCN2CCCC12 (single isomer, unassigned) [14a] | 81%

Same assay, conditions: 0.1 μM compound; Protocol Group B

SMILES | Percentage inhibition of ligand binding, Adrenergic α2B (0.1 μM)
Cc1cc2c3c(n(CC(C)(O)c4ccncc4)c2cc1Cl)CCN1CCCC31 (single isomer, unassigned) [50b] | 100%

Same assay, conditions: 0.1 μM compound; Protocol Group B; 0.1 µM

SMILES | Percentage inhibition of ligand binding, Adrenergic α2B (0.1 μM)
CC(O)(Cn1c2c(c3cc(F)ccc31)C1CCCN1CC2)c1ccncc1 (single isomer, unassigned) [31b] | 97%

Same assay, conditions: 0.1 μM compound; Protocol Group B; read-out: Percentage inhibition of ligand binding, Adrenergic α2B (0.1 μM)

SMILES | inhibition at 0.1 µM
Cc1ccc2c(c1)c1c(n2CC(OC2CCCC2)c2ccncc2)CCN(C)C1 (single isomer, unassigned) [35a] | 96%
Cc1cc(F)cc2c3c(n(CC(C)(O)c4cccnc4)c12)CCN1CCCC31 (single isomer, unassigned) [75a] | 87%
Cc1ccc2c(c1)c1c(n2CC(O)c2ccncc2F)CCN2CCCC12 (single isomer, unassigned) [14a] | 89%

Same assay, conditions: Protocol Group B; estimated Ki; read-out: Ki α2B

SMILES | Ki
Cc1cc(F)c2c(c1)c1c(n2CC(O)c2ccncc2)CCN2CCCC12 (single isomer, unassigned) [137b] | 0.00079 µM
Cc1ccc2c(c1)c1c(n2CC(OC2CCCC2)c2ccncc2)CCN(C)C1 (single isomer, unassigned) [35a] | 0.0029 µM
Cc1cc2c3c(n(CC(C)(O)c4ccncc4)c2cc1Cl)CCN1CCCC31 (single isomer, unassigned) [50b] | 0.00075 µM
OC(Cn1c2c(c3cc(Cl)cc(F)c31)C1CCCN1CC2)c1ccncc1 (single isomer, unassigned) [135a] | 0.00295 µM
CC(O)(Cn1c2c(c3cc(F)ccc31)C1CCCN1CC2)c1ccncc1 (single isomer, unassigned) [31b] | 0.0026 µM
Cc1ccc2c(c1)c1c(n2CC(O)c2ccncc2F)CCN2CCCC12 (single isomer, unassigned) [14a] | 0.0065 µM

These compounds were tested against T3, Human adrenergic α1B receptor (Homo sapiens, UniProt P35368) (assay: β-Arrestin GPCR functional assay, adrenergic α1B (Protocol B)). Settings: 0.1 μM compound; nor-epinephrine at EC80 (50 nM).
T3 sequence (P35368 1-520): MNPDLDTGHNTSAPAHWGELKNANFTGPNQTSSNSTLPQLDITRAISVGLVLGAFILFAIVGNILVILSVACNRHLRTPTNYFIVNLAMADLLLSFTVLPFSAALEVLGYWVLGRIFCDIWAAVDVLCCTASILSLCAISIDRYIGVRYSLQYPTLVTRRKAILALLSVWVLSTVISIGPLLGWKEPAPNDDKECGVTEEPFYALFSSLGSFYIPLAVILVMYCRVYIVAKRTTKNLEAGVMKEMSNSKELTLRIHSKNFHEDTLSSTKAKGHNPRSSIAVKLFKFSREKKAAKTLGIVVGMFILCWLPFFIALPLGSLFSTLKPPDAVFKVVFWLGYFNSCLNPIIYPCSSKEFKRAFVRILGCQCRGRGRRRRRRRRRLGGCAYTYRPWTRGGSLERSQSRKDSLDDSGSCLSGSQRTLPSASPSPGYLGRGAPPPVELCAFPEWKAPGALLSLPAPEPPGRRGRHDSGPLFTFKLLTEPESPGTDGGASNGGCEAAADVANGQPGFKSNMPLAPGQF
Format: cell-based
Protocol: To evaluate the activity of compounds in β-Arrestin GPCR functional assays, recombinant CHO cell line (DiscoveRX), over expressed with human adrenergic α1B receptor were used. The experiment was done with a kit of DiscoveRX as per recommended protocol of the supplier. Cells were harvested from culture flask using cell dissociation solution (CDS) and plated at a density of 12,000 cells/well in CP reagent (supplied with the kit) in a half area 96-well white polystyrene plate. After 24 h incubation at 37° C., compounds at various concentrations in 1% (final) DMSO were charged to the cells for 30 min at 37° C. Active nor-epinephrine (-NE) at its EC80 concentrations (50 nM) were then added to the cells and incubated for another 90 min at 37° C. Detection mix was prepared by mixing Path Hunter cell assay buffer, Emerald II solution and Galactone star solution in a ratio of 19:5:1 and incubated with the cells for 60 min at RT in the dark. The reading was taken in Envision at luminescence mode. Biochemical assay results are presented as the percent Inhibition in Table B2a, or IC50 values in Table B2b.

SMILES | Percentage inhibition, Adrenergic α1B
Cc1ccc2c(c1)c1c(n2CC(O)c2ccncc2F)CCN2CCCC12 (single isomer, unassigned) [14a] | 49%

Same assay, conditions: 0.3 μM compound; nor-epinephrine at EC80 (50 nM); read-out: Percentage inhibition, Adrenergic α1B

SMILES | inhibition at 0.3 µM
Cc1ccc2c(c1)c1c(n2CC(O)c2ccncc2F)CCN2CCCC12 (single isomer, unassigned) [14a] | 76%

Same assay, conditions: β-arrestin, antagonist vs nor-epinephrine EC80

SMILES | IC50
Cc1cc(F)c2c(c1)c1c(n2CC(O)c2ccncc2)CCN2CCCC12 (single isomer, unassigned) [137b] | 0.0356 µM
Cc1ccc2c(c1)c1c(n2CC(OC2CCCC2)c2ccncc2)CCN(C)C1 (single isomer, unassigned) [35a] | 0.672 µM
Cc1cc2c3c(n(CC(C)(O)c4ccncc4)c2cc1Cl)CCN1CCCC31 (single isomer, unassigned) [50b] | 0.054 µM
OC(Cn1c2c(c3cc(Cl)cc(F)c31)C1CCCN1CC2)c1ccncc1 (single isomer, unassigned) [135a] | 0.189 µM
CC(O)(Cn1c2c(c3cc(F)ccc31)C1CCCN1CC2)c1ccncc1 (single isomer, unassigned) [31b] | 0.782 µM
Cc1cc(F)cc2c3c(n(CC(C)(O)c4cccnc4)c12)CCN1CCCC31 (single isomer, unassigned) [75a] | 0.719 µM
Cc1ccc2c(c1)c1c(n2CC(O)c2ccncc2F)CCN2CCCC12 (single isomer, unassigned) [14a] | 0.099 µM
